The DC50 is the concentration giving 50% degradation.

The text below walks through data of patent US20260092061A1, “COMPOUNDS FOR TARGETED PROTEIN DEGRADATION” (Amphista Therapeutics Limited, priority 2022, published 2026).

In test [1] the target is T1, BRD9 (Homo sapiens, UniProt Q9H8M2).
T1 sequence (Q9H8M2 1-597): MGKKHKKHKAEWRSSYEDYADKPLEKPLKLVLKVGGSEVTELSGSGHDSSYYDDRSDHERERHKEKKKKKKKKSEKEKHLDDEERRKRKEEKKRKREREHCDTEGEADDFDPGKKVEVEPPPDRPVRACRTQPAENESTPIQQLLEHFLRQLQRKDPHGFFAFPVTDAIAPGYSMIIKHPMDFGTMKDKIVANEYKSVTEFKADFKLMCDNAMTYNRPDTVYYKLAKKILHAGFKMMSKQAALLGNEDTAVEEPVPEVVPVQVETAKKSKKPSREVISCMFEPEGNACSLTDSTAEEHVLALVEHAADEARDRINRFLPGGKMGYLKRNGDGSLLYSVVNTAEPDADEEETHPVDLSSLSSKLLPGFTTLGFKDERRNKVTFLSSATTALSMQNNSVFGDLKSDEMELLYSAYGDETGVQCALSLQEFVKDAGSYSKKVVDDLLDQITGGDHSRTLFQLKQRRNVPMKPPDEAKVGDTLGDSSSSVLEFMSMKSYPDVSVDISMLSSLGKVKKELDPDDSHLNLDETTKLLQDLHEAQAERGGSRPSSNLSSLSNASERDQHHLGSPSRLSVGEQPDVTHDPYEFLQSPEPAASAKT
As to the kind of experiment: BRD9 degradation, HiBiT-BRD9 KI HEK293 (LgBiT) cells, NanoGlo Lytic Endpoint assay (Assay Protocol 1). The conditions noted are these: BRD9 degradation; for Dmax / Dmax at 1 µM: HEK293; for Dmax: read-out: Dmax; for Dmax at 1 µM: 1 μM compound at 6 h of treatment, read-out: Assay 1 Dmax. It counts as cell-based. The method, boiled down:
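HiBiT-tagged BRD9 knock-in HEK293 (LgBiT) cells exposed to compounds for 6 h at 37 °C, 5% CO2. Residual BRD9 measured by HiBiT lytic luminescence. % BRD9 remaining normalised to DMSO-treated cells (high) and no-cell wells (low).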

For test [2], the target named is T1, BRD9. The test is described as follows: Degradation of BRD9 (IF), immunofluorescence in MV4-11 cells, 24 hours (Assay Protocol 2). It counts as cell-based. Also on record: A suspension of MV4-11 cells (ATCC CRL-9591) was prepared; host or cells: MV4-11. Put shortly: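 MV4-11 cells treated with compound 24 h at 37° C., then fixed, permeabilised and immunostained for BRD9 (anti-BRD9 E4Q3F, Alexa 647 secondary, Hoechst counterstain). High-content imaging quantified nuclear BRD9 signal; % BRD9 remaining normalised to DMSO and 100 nM CFT-8634 controls.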

The mark [3] stands for this setting: Assay protocol 1, read-out: DC50.
Where [4] appears, read: Assay protocol 2, BRD9 degradation, read-out: DC50.
[5] abbreviates: MV4-11, Assay protocol 2, BRD9 degradation, read-out: Dmax.
Where [6] appears, read: Table 2, Assay Protocol 1, 6 h of treatment, read-out: Assay 1 DC50.
Where [7] appears, read: MV4-11, 24 h, Table 2, BRD9 degradation (IF), Assay Protocol 2, MV4-11 cells, read-out: Assay 2 DCmax.
Where [8] appears, read: Table 2, BRD9 degradation (IF), Assay Protocol 2, MV4-11 cells, read-out: Assay 2 DC50.

Each structure is given as a SMILES string. Some results are limits rather than exact numbers.

For `CCCC(c1cccc(CCC(=O)N2CCN(Cc3c(OC)cc(-c4cn(C)c(=O)c(C)c4C)cc3OC)CC2)c1)N(C)C(=O)/C(C#N)=C/c1nccs1` (mixture of isomers) [Compound B185, (E/Z)-2-cyano-N-(1-(3-(3-(4-(2,6-dimethoxy-4-(1,4,5-trimethyl-6-oxo-1,6-dihydropyridin-3-yl)benzyl)piperazin-1-yl)-3-oxopropyl)phenyl)butyl)-N-methy-3-(thiazol-2-yl)acrylamide], the 50% degradation concentration (DC50) at BRD9 [1] (setting [3]) was in the range of 10 to 25 nM; at BRD9 [2] (setting [4]), 1.25 to 10 nM. Moreover, the Dmax was 40 to 70% at BRD9 [1] (Assay protocol 1) and more than 75% on BRD9 [2] (setting [5]).
In the same order, the values of `COc1cc(-c2cn(C)c(=O)c(C)c2C)cc(OC)c1CN1CC2CC(C1)N2Cc1cccc2c1CCN(C(=O)/C(C#N)=C/c1cccc(Br)n1)C2C` (mixture of isomers) [Compound B7, (E/Z)-3-(6-bromopyridin-2-yl)-2-(5-((3-(2,6-dimethoxy-4-(1,4,5-trimethyl-6-oxo-1,6-dihydropyridin-3-yl)benzyl)-3,6-diazabicyclo[3.1.1]heptan-6-yl)methyl)-1-methyl-1,2,3,4-tetrahydroisoquinoline-2-carbonyl)acrylonitrile] are 1.25 to 10 nM, less than 1.25 nM, 40 to 70% and 40 to 70%.
For the molecule `COc1cc(-c2cn(C)c(=O)c(C)c2C)cc(OC)c1CN1CCN(CC(=O)NCCOc2ccc3c(c2)CCN(C(=O)/C(C#N)=C/c2nccs2)C3C)CC1` (mixture of isomers) [Compound B31, (E/Z)—N-(2-((2-(2-cyano-3-(thiazol-2-yl)acryloyl)-1-methyl-1,2,3,4-tetrahydroisoquinolin-6-yl)oxy)ethyl)-2-(4-(2,6-dimethoxy-4-(1,4,5-trimethyl-1-oxo-1,6-dihydropyridin-3-yl)benzyl)piperazin-1-yl)acetamide], the Dmax on BRD9 [1] (Assay protocol 1) and at BRD9 [2] (setting [5]) was 40 to 70% in each case. Moreover, at BRD9 [2] (setting [4]), the DC50 was 10 to 25 nM.
Take `CCCC(c1ccc(C(=O)N(C)CCCCCCCCC(=O)N2CCN(Cc3c(OC)cc(-c4cn(C)c(=O)c(C)c4C)cc3OC)CC2)cc1)N(C)C(=O)/C(C#N)=C/c1nccs1` (mixture of isomers) [Compound B183, (E/Z)-4-(1-(2-cyano-N-methyl-3-(thiazol-2-yl)acrylamido)butyl)-N-(9-(4-(2,6-dimethoxy-4-(1,4,5-trimethyl-6-oxo-1,6-dihydropyridin-3-yl)benzyl)piperazin-1-yl)-9-oxononyl)-N-methylbenzamide]: the DC50 at BRD9 [1] (setting [3]) lay within 25 to 1000 nM; at BRD9 [2] (setting [4]), 1.25 to 10 nM. The Dmax is 40 to 70% at BRD9 [1] (Assay protocol 1) and more than 75% at BRD9 [2] (setting [5]).
As to `COc1cc(-c2cn(C)c(=O)c(C)c2C)cc(OC)c1CN1CCN(c2ccc(C3CCCN3C(=O)/C(C#N)=C/C(C)(C)C)cc2)CC1` (mixture of isomers) [Compound B42, (E/Z)-2-(2-(4-(4-(2,6-dimethoxy-4-(1,4,5-trimethyl-6-oxo-1,6-dihydropyridin-3-yl)benzyl)piperazin-1-yl)phenyl)pyrrolidine-1-carbonyl)-4,4-dimethylpent-2-enenitrile], the 50% degradation concentration (DC50) on BRD9 [1] (setting [3]) was 10 to 25 nM. For the same molecule, the Dmax at BRD9 [1] (Assay protocol 1) and on BRD9 [2] (setting [5]) was 40 to 70% throughout.
`COc1ccc([C@@H]2CN(C(=O)/C(C#N)=C/c3nccs3)C[C@H]2C(=O)N2CCN(Cc3c(OC)cc(-c4cn(C)c(=O)c(C)c4C)cc3OC)CC2)cc1` [Compound B27]: the Dmax on BRD9 [1] (Assay protocol 1) is 40 to 70%; on BRD9 [2] (setting [5]), more than 75%. For the same molecule, the DC50 on BRD9 [2] (setting [4]) fell in the range of 1.25 to 10 nM.
The like results for `CCCC(c1ccc(C(=O)N(C)CCCCC(=O)N2CCN(Cc3c(OC)cc(-c4cn(C)c(=O)c(C)c4C)cc3OC)CC2)cc1)N(C)C(=O)/C(C#N)=C/c1nccs1` (mixture of isomers) [Compound B181, (E/Z)-4-(1-(2-cyano-N-methyl-3-(thiazol-2-yl)acrylamido)butyl)-N-(5-(4-(2,6-dimethoxy-4-(1,4,5-trimethyl-6-oxo-1,6-dihydropyridin-3-yl)benzyl)piperazin-1-yl)-5-oxopentyl)-N-methylbenzamide] were, in that order, 40 to 70%, 40 to 70% and 10 to 25 nM.
Consider `COc1cc(-c2cn(C)c(=O)c3cnccc23)cc(OC)c1CN1C2CCC1CN(Cc1cccc3c1CCN(C(=O)/C(C#N)=C/C(C)(C)C)C3C)C2` (stereo not drawn) [Compound A49], for which the Dmax at 1 µM on BRD9 [1] (Table 2, Assay Protocol 1) lay in the range of 40 to 70%. Further, the DC50 on BRD9 [1] (setting [6]) was 1.25 to 10 nM; on BRD9 [2] (setting [8]) it was less than 1.25 nM. Besides, at BRD9 [2] (setting [7]), the Dmax was 40 to 70%.
Consider `COc1cc(-c2cn(C)c(=O)c3cnccc23)cc(OC)c1CN1CCN(Cc2cccc3c2CCN(C(=O)/C(C#N)=C/c2nccs2)[C@H]3C)CC1` (single isomer, unassigned) [Compound A15], for which the Dmax at 1 µM at BRD9 [1] (Table 2, Assay Protocol 1) was 40 to 70%. Besides, the DC50 on BRD9 [1] (setting [6]) was 1.25 to 10 nM; at BRD9 [2] (setting [8]), less than 1.25 nM. The Dmax on BRD9 [2] (setting [7]) lay within 40 to 70%.
In the case of `COc1cc(-c2cn(C)c(=O)c(C)c2C)cc(OC)c1CN1CCCN(Cc2cccc3c2CCN(C(=O)/C(C#N)=C/C2(F)CC2)C3C)CC1` (single isomer, unassigned) [Compound A69, (E/Z)-2-(5-((4-(2,6-dimethoxy-4-(1,4,5-trimethyl-6-oxo-1,6-dihydropyridin-3-yl)benzyl)-1,4-diazepan-1-yl)methyl)-1-methyl-1,2,3,4-tetrahydroisoquinoline-2-carbonyl)-3-(1-fluorocyclopropyl)acrylonitrile], the Dmax at 1 µM at BRD9 [1] (Table 2, Assay Protocol 1) was more than 75%. Besides, the values for the DC50 on BRD9 [1] (setting [6]) and on BRD9 [2] (setting [8]) were 1.25 to 10 nM and 25 to 300 nM, respectively. For the same molecule, the Dmax at BRD9 [2] (setting [7]) fell in the range of 40 to 70%.
In the case of `COc1cc(-c2cn(C)c(=O)c(C)c2C)cc(OC)c1CN1CC2(C1)CN(c1cccc(C3CCCN3C(=O)/C(C#N)=C/C(C)(C)C)c1)C2` (mixture of isomers) [Compound B58, (E/Z)-2-(2-(3-(6-(2,6-dimethoxy-4-(1,4,5-trimethyl-6-oxo-1,6-dihydropyridin-3-yl)benzyl)-2,6-diazaspiro[3.3]heptan-2-yl)phenyl)pyrrolidine-1-carbonyl)-4,4-dimethylpent-2-enenitrile], the DC50 on BRD9 [1] (setting [3]) and on BRD9 [2] (setting [4]) was less than 1.25 nM throughout. Moreover, the Dmax at BRD9 [1] (Assay protocol 1) and at BRD9 [2] (setting [5]) was 40 to 70% throughout.
Consider `COc1cc(-c2cn(C)c(=O)c(C)c2C)cc(OC)c1CN(C)Cc1cccc2c1CCN(C(=O)/C(C#N)=C/c1cccc(Br)n1)C2C` (mixture of isomers) [Compound B14, (E/Z)-3-(6-bromopyridin-2-yl)-2-(5-(((2,6-dimethoxy-4-(1,4,5-trimethyl-6-oxo-1,6-dihydropyridin-3-yl)benzyl)(methyl)amino)methyl)-1-methyl-1,2,3,4-tetrahydroisoquinoline-2-carbonyl)acrylonitrile], for which the DC50 at BRD9 [1] (setting [3]) and at BRD9 [2] (setting [4]) was 1.25 to 10 nM throughout. Moreover, the Dmax at BRD9 [1] (Assay protocol 1) and on BRD9 [2] (setting [5]) was more than 75% each time.
As for `COc1cc(-c2cn(C)c(=O)c3cnccc23)cc(OC)c1CN1CCN(Cc2cccc3c2CCN(C(=O)/C(C#N)=C/c2nccs2)[C@@H]3C)CC1` (single isomer, unassigned) [Compound A14, (E/Z)-2-(5-((4-(2,6-dimethoxy-4-(2-methyl-1-oxo-1,2-dihydro-2,7-naphthyridin-4-yl)benzyl)piperazin-1-yl)methyl)-1-methyl-1,2,3,4-tetrahydroisoquinoline-2-carbonyl)-3-(thiazol-2-yl)acrylonitrile], the Dmax at 1 µM at BRD9 [1] (Table 2, Assay Protocol 1) is 40 to 70%. The DC50 at BRD9 [1] (setting [6]) and on BRD9 [2] (setting [8]) was less than 1.25 nM in each case. Besides, at BRD9 [2] (setting [7]), the Dmax lay within 40 to 70%.
As to `CCCC(c1ccc(C(=O)N(C)CCC(=O)N2CCN(Cc3c(OC)cc(-c4cn(C)c(=O)c(C)c4C)cc3OC)CC2)cc1)N(C)C(=O)/C(C#N)=C/c1nccs1` (stereo not drawn) [Compound B180], the Dmax at BRD9 [1] (Assay protocol 1) and at BRD9 [2] (setting [5]) was 40 to 70% in each case.
As for `COc1cc(-c2cn(C)c(=O)c(C)c2C)cc(OC)c1CN(C)Cc1ccc2c(c1)C(C)N(C(=O)/C(C#N)=C/c1cccc(Br)n1)CC2` (mixture of isomers) [Compound B5, (E/Z)-3-(6-bromopyridin-2-yl)-2-(7-(((2,6-dimethoxy-4-(1,4,5-trimethyl-6-oxo-1,6-dihydropyridin-3-yl)benzyl)(methyl)amino)methyl)-1-methyl-1,2,3,4-tetrahydroisoquinoline-2-carbonyl)acrylonitrile], the half-maximal degradation concentration (DC50) at BRD9 [1] (setting [3]) is 1.25 to 10 nM; on BRD9 [2] (setting [4]), less than 1.25 nM. For the same molecule, the Dmax at BRD9 [1] (Assay protocol 1) and on BRD9 [2] (setting [5]) was more than 75% in each case.
